Patent US20080206761A1, “Ex Vivo Gene Expression in Whole Blood as a Model of Assessment of Individual Variation to Dietary Supplements” (priority 2005, published 2008)

How the values were obtained:
[1] = tested on: CD32A mRNA (IgG Fc receptor); assay: CD32A mRNA level in leukocytes after exposure of whole blood to dietary components (no stimulating agent); format: cell-based, human; conditions: one individual; 3 hours at 37° C.; PBS control
Description: In brief, home-made 96-well filterplates were placed over collection plates, and 150 μl 5 mM Tris, pH 7.4, was applied. Following centrifugation at 120×g for 1 min at 4° C., 50 μl of blood samples were applied to each well and immediately centrifuged at 120×g for 2 min at 4° C., followed by washing of each well with 300 μl PBS once with centrifugation at 2000×g for 5 min at 4° C. […] The filterplates were then placed over oligo(dT)-immobilized microplates (GenePlate, RNAture), and centrifuged at 2000×g for 5 min at 4° C. Following overnight storage at 4° C., the microplates were washed with 100 μl plain lysis buffer 3 times, followed by 150 μl of wash buffer (0.5 M NaCl, 10 mM Tris, pH 7.4, 1 mM EDTA) 3 times at 4° C. […] The specific primer-primed cDNA existed in solution, and oligo(dT)-primed cDNA stayed immobilized in the microplate. […] Each gene was amplified in separate wells. The Ct was determined by analytical software (SDS, ABI).

[2] = at 8 hours after a single soy meal; cited from earlier work
IL-4 mRNA [3] = assay: PHA-induced IL-4 mRNA expression in heparinized whole blood ex vivo; format: cell-based, human; conditions: for ΔΔCt (mean ± standard deviation, n = 3), IL-4 mRNA: supplement 30 min, then 100 μg/mL PHA 2 h, concentrations per footnote; for effect on PHA-induced IL-4 expression, in words: summary over 7 subjects of Table I
Description: (§1) In this embodiment, phytohemagglutinin-induced gene expression of interleukin-2 (IL-2), interleukin-4 (IL-4), and tumor necrosis factor-α (TNF-α) were quantitated in the following manner. Fifty μL of heparinized whole blood was incubated with various dietary supplements for a period of 30 minutes. The following supplements were employed: vitamins A, C, and D, epigallocatechin gallate (from green tea), genistein (from soy), and curcumin (from the spice turmeric). Vitamin A is known to stimulate the immune system. […] Vitamin D appears to have protective effects against certain cancers. Epigallocatechin gallate is a powerful antioxidant, appears to reduce the multidrug resistance found in cancer cells, and preferentially induces apoptosis in neoplastic cells. Genistein has been found in some studies to have anticarcinogenic activity; possible mechanisms of action include upregulation of apoptosis, inhibition of angiogenesis, inhibition of DNA topoisomerase II and inhibition of protein tyrosine kinases. Curcumin has proapoptotic effects in neoplastic cells and interferes with the activity of the transcription factor NF-κB, which is often highly overexpressed in such cells.
(§2) After incubation with the dietary supplement, 100 μg/mL phytohemagglutinin (PHA) was added and incubation was continued for an additional 2 hours at 37° C. The concentration of each dietary supplement (see Table I, note) was slightly higher than reported blood levels. Then mRNA was purified, cDNA was synthesized, and the levels of IL-2, IL-4, and TNF-α were quantitated by TaqMan real time polymerase chain reaction (PCR) (see Holland, et al., “Detection of specific polymerase chain reaction product by utilizing the 5′ to 3′ exonuclease activity of Thermus aquaticus DNA polymerase,” Proc Natl Acad Sci USA 1991; 88: 7276-80), as described below.
(§3) The mRNA and cDNA were prepared from the whole blood that was exposed to the dietary components, as well as the whole blood which remained unexposed. In brief, home-made 96-well filterplates were placed over collection plates, and 150 μl 5 mM Tris, pH 7.4, was applied. Following centrifugation at 120×g for 1 min at 4° C., 50 μl of blood samples were applied to each well and immediately centrifuged at 120×g for 2 min at 4° C., followed by washing of each well with 300 μl PBS once with centrifugation at 2000×g for 5 min at 4° C. Then, 60 μl stock lysis buffer, containing for example 0.5% N-Lauroylsarcosine, 4×SSC, 10 mM Tris HCl, pH 7.4, 1 mM EDTA, 0.1% IGEPAL CA-630, and 1.791 M guanidine thiocyanate, supplemented with 1% 2-mercaptoethanol (Bio Rad, Hercules, Calif., USA), 0.5 mg/ml proteinase K (Pierce, Rockford, Ill., USA), 0.1 mg/ml salmon sperm DNA (5 Prime Eppendorf/Brinkmann, Westbury, N.Y., USA), 0.1 mg/ml E. coli tRNA (Sigma), a cocktail of 10 mM each of the specific reverse primers shown in Table 2, and standard RNA34 oligonucleotides, were applied to the filterplates, followed by incubation at 37° C. for 10 min. The filterplates were then placed over oligo(dT)-immobilized microplates (GenePlate, RNAture), and centrifuged at 2000×g for 5 min at 4° C. Following overnight storage at 4° C., the microplates were washed with 100 μl plain lysis buffer 3 times, followed by 150 μl of wash buffer (0.5 M NaCl, 10 mM Tris, pH 7.4, 1 mM EDTA) 3 times at 4° C. The cDNA was directly synthesized in each well by adding 30 μl of buffer containing 1×RT-buffer, 1.25 mM each of dNTP, 4 units rRNasin, and 80 units of MMLV reverse transcriptase (Promega) (without primers), and incubation at 37° C. for 2 hours. The specific primer-primed cDNA existed in solution, and oligo(dT)-primed cDNA stayed immobilized in the microplate. […]

IL-2 mRNA [4] = assay: PHA-induced IL-2 mRNA expression in heparinized whole blood ex vivo; format: cell-based, human; conditions: for ΔΔCt (mean ± standard deviation, n = 3), IL-2 mRNA: supplement 30 min, concentrations per footnote
Description: as §1, §2, §3

TNF-α mRNA [5] = assay: PHA-induced TNF-α mRNA expression in heparinized whole blood ex vivo; format: cell-based, human; conditions: for ΔΔCt (mean ± standard deviation, n = 3), TNFα mRNA: supplement 30 min, then 100 μg/mL PHA 2 h, concentrations per footnote
Description: as §1, §2, §3

IL-4 mRNA [6] = assay: PHA-induced IL-4 mRNA expression in heparinized whole blood ex vivo; format: cell-based, human
TNF-α mRNA [7] = assay: PHA-induced TNF-α mRNA expression in heparinized whole blood ex vivo; format: cell-based, human
IL-2 mRNA [8] = assay: PHA-induced IL-2 mRNA expression in heparinized whole blood ex vivo; format: cell-based, human
[9] = Subject 1, then 100 μg/mL PHA 2 h 37° C., negative = increased expression
[10] = Subject 2, then 100 μg/mL PHA 2 h
[11] = Subject 3, then 100 μg/mL PHA 2 h
[12] = Subject 4, then 100 μg/mL PHA 2 h
[13] = Subject 5, then 100 μg/mL PHA 2 h
[14] = Subject 6, then 100 μg/mL PHA 2 h
[15] = Subject 7, then 100 μg/mL PHA 2 h
[16] = summary over 7 subjects of Table I
[17] = PHA alone, 2 hours at 37° C., FIG. 1A

O=c1c(-c2ccc(O)cc2)coc2cc(O)cc(O)c12 [Gen., genistein]
conclusion from CD32A mRNA levels (FIG. 2), in words [1]: would be suitable for use in this individual in a diet optimized for anti-cancer activity
plasma concentration [2]: 4000 µM
ΔΔCt (mean ± standard deviation, n = 3), IL-4 mRNA (IL-4 mRNA [3]; Subject 1): −1.83 ± 0.20
ΔΔCt (mean ± standard deviation, n = 3), IL-4 mRNA (IL-4 mRNA [3]; Subject 2): −1.56 ± 0.46
ΔΔCt (mean ± standard deviation, n = 3), IL-4 mRNA (IL-4 mRNA [3]; Subject 3): −0.82 ± 0.34
ΔΔCt (mean ± standard deviation, n = 3), IL-4 mRNA (IL-4 mRNA [3]; Subject 4): −1.04 ± 0.16
ΔΔCt (mean ± standard deviation, n = 3), IL-4 mRNA (IL-4 mRNA [3]; Subject 5): −0.45 ± 0.34
ΔΔCt (mean ± standard deviation, n = 3), IL-4 mRNA (IL-4 mRNA [3]; Subject 6): −0.34 ± 0.02
ΔΔCt (mean ± standard deviation, n = 3), IL-4 mRNA (IL-4 mRNA [3]; Subject 7): 0.28 ± 0.25
effect on PHA-induced IL-4 expression, in words (IL-4 mRNA [3]): mainly inactive
ΔΔCt (mean ± standard deviation, n = 3), IL-2 mRNA (IL-2 mRNA [4]; [9]): −0.41 ± 0.53
ΔΔCt (mean ± standard deviation, n = 3), IL-2 mRNA (IL-2 mRNA [4]; [10]): 0.90 ± 0.44
ΔΔCt (mean ± standard deviation, n = 3), IL-2 mRNA (IL-2 mRNA [4]; [11]): 0.11 ± 0.23
ΔΔCt (mean ± standard deviation, n = 3), IL-2 mRNA (IL-2 mRNA [4]; [12]): 0.08 ± 0.04
ΔΔCt (mean ± standard deviation, n = 3), IL-2 mRNA (IL-2 mRNA [4]; [13]): −0.02 ± 1.03
ΔΔCt (mean ± standard deviation, n = 3), IL-2 mRNA (IL-2 mRNA [4]; [14]): 0.00 ± 0.27
ΔΔCt (mean ± standard deviation, n = 3), IL-2 mRNA (IL-2 mRNA [4]; [15]): −0.28 ± 0.20
effect on PHA-induced IL-2 expression, in words (IL-2 mRNA [4]; [16]): mainly inactive
ΔΔCt (mean ± standard deviation, n = 3), TNFα mRNA (TNF-α mRNA [5]; Subject 1): −1.14 ± 0.32
ΔΔCt (mean ± standard deviation, n = 3), TNFα mRNA (TNF-α mRNA [5]; Subject 2): −1.01 ± 0.04
ΔΔCt (mean ± standard deviation, n = 3), TNFα mRNA (TNF-α mRNA [5]; Subject 3): 0.33 ± 0.62
ΔΔCt (mean ± standard deviation, n = 3), TNFα mRNA (TNF-α mRNA [5]; Subject 4): −0.16 ± 0.12
ΔΔCt (mean ± standard deviation, n = 3), TNFα mRNA (TNF-α mRNA [5]; Subject 5): −0.32 ± 0.54
ΔΔCt (mean ± standard deviation, n = 3), TNFα mRNA (TNF-α mRNA [5]; Subject 6): −0.02 ± 0.20
ΔΔCt (mean ± standard deviation, n = 3), TNFα mRNA (TNF-α mRNA [5]; Subject 7): −0.17 ± 0.18
effect on PHA-induced TNF-α expression, in words (TNF-α mRNA [5]; [16]): mainly inactive

phytohemagglutinin [PHA]
time for IL-4 mRNA induction to reach a plateau (IL-4 mRNA [6]; 100 μg/mL PHA, FIG. 1B): 30 to 60 min
EC50 of induction of IL-4 mRNA expression (IL-4 mRNA [6]; [17]): 10 to 20 µg/mL
time for TNF-α mRNA induction to reach a plateau (TNF-α mRNA [7]; 100 μg/mL PHA, FIG. 1B): 30 to 60 min
EC50 of induction of TNF-α mRNA expression (TNF-α mRNA [7]; [17]): 10 to 20 µg/mL
time for IL-2 mRNA induction to reach a plateau (IL-2 mRNA [8]; 100 μg/mL PHA, FIG. 1B): 30 to 60 min
EC50 of induction of IL-2 mRNA expression (IL-2 mRNA [8]; [17]): 10 to 20 µg/mL

vitamin D [VD]
conclusion from CD32A mRNA levels (FIG. 2), in words [1]: would be suitable for use in this individual in a diet optimized for anti-cancer activity
ΔΔCt (mean ± standard deviation, n = 3), IL-4 mRNA (IL-4 mRNA [3]; Subject 1): −0.17 ± 1.0
ΔΔCt (mean ± standard deviation, n = 3), IL-4 mRNA (IL-4 mRNA [3]; Subject 2): 0.06 ± 0.15
ΔΔCt (mean ± standard deviation, n = 3), IL-4 mRNA (IL-4 mRNA [3]; Subject 3): −0.77 ± 0.40
ΔΔCt (mean ± standard deviation, n = 3), IL-4 mRNA (IL-4 mRNA [3]; Subject 4): −0.43 ± 0.17
ΔΔCt (mean ± standard deviation, n = 3), IL-4 mRNA (IL-4 mRNA [3]; Subject 5): −1.22 ± 0.17
ΔΔCt (mean ± standard deviation, n = 3), IL-4 mRNA (IL-4 mRNA [3]; Subject 6): −0.77 ± 0.09
ΔΔCt (mean ± standard deviation, n = 3), IL-4 mRNA (IL-4 mRNA [3]; Subject 7): −1.30 ± 0.22
effect on PHA-induced IL-4 expression, in words (IL-4 mRNA [3]): enhanced IL-4 expression, with 1-3 exceptions
ΔΔCt (mean ± standard deviation, n = 3), IL-2 mRNA (IL-2 mRNA [4]; [9]): −0.13 ± 0.07
ΔΔCt (mean ± standard deviation, n = 3), IL-2 mRNA (IL-2 mRNA [4]; [10]): 0.06 ± 0.40
ΔΔCt (mean ± standard deviation, n = 3), IL-2 mRNA (IL-2 mRNA [4]; [11]): 0.00 ± 0.15
ΔΔCt (mean ± standard deviation, n = 3), IL-2 mRNA (IL-2 mRNA [4]; [12]): −0.31 ± 0.30
ΔΔCt (mean ± standard deviation, n = 3), IL-2 mRNA (IL-2 mRNA [4]; [13]): −0.45 ± 0.61
ΔΔCt (mean ± standard deviation, n = 3), IL-2 mRNA (IL-2 mRNA [4]; [14]): −0.55 ± 0.14
ΔΔCt (mean ± standard deviation, n = 3), IL-2 mRNA (IL-2 mRNA [4]; [15]): −0.86 ± 0.12
ΔΔCt (mean ± standard deviation, n = 3), TNFα mRNA (TNF-α mRNA [5]; Subject 1): −0.25 ± 1.47
ΔΔCt (mean ± standard deviation, n = 3), TNFα mRNA (TNF-α mRNA [5]; Subject 2): 0.14 ± 0.40
ΔΔCt (mean ± standard deviation, n = 3), TNFα mRNA (TNF-α mRNA [5]; Subject 3): −0.04 ± 0.27
ΔΔCt (mean ± standard deviation, n = 3), TNFα mRNA (TNF-α mRNA [5]; Subject 4): 0.09 ± 0.16
ΔΔCt (mean ± standard deviation, n = 3), TNFα mRNA (TNF-α mRNA [5]; Subject 5): −1.21 ± 0.14
ΔΔCt (mean ± standard deviation, n = 3), TNFα mRNA (TNF-α mRNA [5]; Subject 6): −0.48 ± 0.04
ΔΔCt (mean ± standard deviation, n = 3), TNFα mRNA (TNF-α mRNA [5]; Subject 7): −0.40 ± 0.15
